Patent publication US20250263404A1, “AMINOPYRIDINES AS ACTIVATORS OF PI3 KINASE” (UCL Business Ltd, priority 2021, published 2025)

Key:
[1] = test system: 133 protein kinases and 7 lipid kinases; experiment: SelectScreen kinase profiling panel; type: biochemical
Method: 133 protein kinases and 7 lipid kinases were counterscreened, with […] used at 1 μM, using the Adapta, Lantha and Z-LYTE assays (SelectScreen Kinase Profiling Service; Thermofisher—experimental details of these assays can be found here: https://www.thermofisher.com/uk/en/home/industrial/pharma-biopharma/drug-discovery-development/target-and-lead-identification-and-validation/kinasebiology/kinase-activity-assays.html. The tree representation in KinMap generated courtesy of Cell Signaling Technology, Inc. (www.cellsignal.com). mTORC1 (mTOR/RAPTOR/LST8) protein complex and ATM kinase and substrates were produced as previously described (Anandapadamanaban, M. et al. Science (New York, NY 366, 203-210 (2019); Baretic, D. et al. Sci Adv 3, e1700933 (2017). Screening of 1938 was conducted using SuperSep Phos-Tag 50 μmol/l 100×100×6.6 mm 17-well (192-18001/199-18011) gels. For ATM assays, 100 nM ATM was incubated for 30 min at 30° C. with 5 μM GST-p53 and 1 mM ATP, in the absence or presence of 200 μM 1938 in ATM Kinase Buffer (50 mM HEPES pH 7.5, 100 mM NaCl, 10% glycerol, 2 mM […], 5 mM MgCl2). […] Gels were then stained using InstantBlue™ Coomassie stain, and then quantified using BioRad Image Lab Software. […]

[2] = target: PI3Kα (Homo sapiens, UniProt P42336); experiment: pAKT S473 ELISA in A549 cells (PI3Kα activation); type: cell-based; design: endogenous in cells; host or cells: A549; conditions: A549 cells
PI3Kα, sequence (P42336 whole entry): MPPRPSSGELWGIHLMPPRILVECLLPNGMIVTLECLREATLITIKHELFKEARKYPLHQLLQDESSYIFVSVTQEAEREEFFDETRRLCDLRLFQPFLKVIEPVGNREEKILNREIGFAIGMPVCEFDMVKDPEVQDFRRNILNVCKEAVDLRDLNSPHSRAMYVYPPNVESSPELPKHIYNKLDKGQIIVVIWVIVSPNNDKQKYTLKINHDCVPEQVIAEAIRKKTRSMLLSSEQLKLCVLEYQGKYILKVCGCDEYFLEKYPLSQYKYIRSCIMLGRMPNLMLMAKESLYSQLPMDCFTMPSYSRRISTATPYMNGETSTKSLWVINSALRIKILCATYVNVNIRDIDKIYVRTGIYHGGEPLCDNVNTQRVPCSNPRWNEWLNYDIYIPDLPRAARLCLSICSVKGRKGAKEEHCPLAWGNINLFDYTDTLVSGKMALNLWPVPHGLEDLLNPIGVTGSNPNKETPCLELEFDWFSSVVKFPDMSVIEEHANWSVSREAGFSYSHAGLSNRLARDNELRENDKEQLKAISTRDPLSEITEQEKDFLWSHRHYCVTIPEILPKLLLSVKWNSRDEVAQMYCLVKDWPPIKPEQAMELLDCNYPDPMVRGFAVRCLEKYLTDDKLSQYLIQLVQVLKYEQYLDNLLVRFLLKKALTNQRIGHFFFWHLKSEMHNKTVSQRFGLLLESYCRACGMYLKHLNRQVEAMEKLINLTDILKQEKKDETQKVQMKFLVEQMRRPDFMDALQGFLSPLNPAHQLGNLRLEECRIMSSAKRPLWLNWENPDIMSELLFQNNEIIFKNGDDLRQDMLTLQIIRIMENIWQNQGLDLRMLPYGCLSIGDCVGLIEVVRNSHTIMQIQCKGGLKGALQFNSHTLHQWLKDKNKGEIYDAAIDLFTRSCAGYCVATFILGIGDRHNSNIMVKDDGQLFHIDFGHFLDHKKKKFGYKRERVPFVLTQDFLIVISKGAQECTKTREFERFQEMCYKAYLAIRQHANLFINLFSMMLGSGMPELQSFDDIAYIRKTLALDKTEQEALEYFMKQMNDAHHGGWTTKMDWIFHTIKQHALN
PI3Kα, sequence (P27986 whole entry partner): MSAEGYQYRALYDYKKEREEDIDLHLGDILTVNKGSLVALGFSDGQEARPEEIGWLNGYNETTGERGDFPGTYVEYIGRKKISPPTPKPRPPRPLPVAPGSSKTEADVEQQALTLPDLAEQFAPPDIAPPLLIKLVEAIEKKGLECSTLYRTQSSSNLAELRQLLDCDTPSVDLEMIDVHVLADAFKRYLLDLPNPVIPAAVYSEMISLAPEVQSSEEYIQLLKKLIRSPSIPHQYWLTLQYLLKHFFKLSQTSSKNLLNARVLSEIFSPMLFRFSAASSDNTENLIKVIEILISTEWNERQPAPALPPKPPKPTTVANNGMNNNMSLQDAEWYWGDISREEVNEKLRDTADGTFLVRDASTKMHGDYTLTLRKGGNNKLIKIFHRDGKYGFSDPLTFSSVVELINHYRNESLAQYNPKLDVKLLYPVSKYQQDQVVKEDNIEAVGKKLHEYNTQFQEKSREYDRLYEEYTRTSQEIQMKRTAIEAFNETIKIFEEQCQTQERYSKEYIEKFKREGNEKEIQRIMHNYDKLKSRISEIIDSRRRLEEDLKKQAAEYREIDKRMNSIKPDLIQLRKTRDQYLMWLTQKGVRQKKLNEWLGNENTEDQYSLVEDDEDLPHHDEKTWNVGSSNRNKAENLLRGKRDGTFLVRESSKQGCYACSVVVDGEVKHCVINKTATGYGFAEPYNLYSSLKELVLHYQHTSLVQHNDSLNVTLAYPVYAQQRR
Method: EC50 values were determined by quantifying phosphorylation on S473 residues of Akt in A549 human adenocarcinoma cells by ELISA (enzyme linked immunoadsorbent assay, R&D Systems, DYC887BE). A549 cells were seeded into 96-well plates (50,000 cells/well) in DMEM supplemented with 10% foetal bovine serum and 1% penicillin-streptomyocin. Following 24 h in culture cells were starved for 24 h in serum-free DMEM before 15 minute treatment with a concentration response curve of compounds. Experimental compounds were diluted in DMSO into […] 1:3 concentration response curves in polypropylene V-bottom plates (SLS MIC9050). Concentration response curves were diluted to a 3× stock in serum-free DMEM. Standard 8-point concentration response curves were performed at 50, 16.7, 5.6, 1.9, 0.6, 0.2, 0.07, 0.02 μM and serum-free DMEM containing 0.5% DMSO was used as a negative control. […] A549 cells were seeded at 50,000 cells per well in 96-well plates in DMEM (10% FBS+1% P/S). The next day cells were washed once with PBS before addition of serum-free DMEM for 24 h. On the day of treatment cells, were incubated in fresh serum-free DMEM prior to treatment. Compounds solubilised to 10 mM in DMSO were diluted 1:3 in an 8-point concentration response curve in DMSO. Concentration response curves were diluted in serum-free DMEM by transfer into intermediate plates using a BRAVO liquid handler (Agilent). Intermediate plates were then used to treat cell plates using the BRAVO liquid handler. Compound concentration response curves had atop concentration of 50 μM and a final well concentration of 0.5% DMSO. Cell plates were treated for 15 min at 37° C., 5% CO2 before being washed with ice-cold PBS and lysed in lysis buffer 6 (R&D Systems #895561) and freezing at −80° C. Levels of pAKT-S473 were determined using the phospho-AKT (S473) pan-specific Duoset IC ELISA (R&D Systems #DYC887BE) in 96-well white high-binding plates (Corning #3922) according to manufacturer's instructions. Endpoint luminescence was measured using a Sense (Hidex) platereader. […] Data were transformed and EC50 data were determined by variable slope (4 parameters) non-linear regression using Prism 7 (Graphpad).

Question: Which results are given for CCN1CCN(c2ccc(Nc3cc(Nc4cccc5c4N(C(C)=O)CC5)ccn3)cc2)CC1 [Example 1938]?
Answer: number of protein kinases inhibited between 25-50% ([1]; 1 μM of 1938): 13; activity of other PI3K isoforms and PI3K-related kinases in the panel ([1]; PI3Kβ, PI3Kγ, PI3Kδ, PI3K-C2α, Vps34, PI4Kβ, mTOR, DNA-PK, 1 μM): did not affect; EC50 ([2]; EC50 for induction of pAKT, 15 min treatment): 2 to 4 µM; Emax ([2]; read-out: AKT phosphorylation, % of Emax of 1 μM insulin, doses of 5-10 μM 1938): ~200%
